Results on 23 compounds are retold here after ChEMBL document CHEMBL1143494 (Bioorg Med Chem Lett, 2005).

In one experiment the target is Neutrophil collagenase (Homo sapiens, UniProt P22894). The experiment can be described thus: Inhibitory concentration against MMP-8.
Experiment [1] addresses T1, A disintegrin and metalloproteinase with thrombospondin motifs 4 (Homo sapiens, UniProt O75173).
T1 sequence (O75173 whole entry): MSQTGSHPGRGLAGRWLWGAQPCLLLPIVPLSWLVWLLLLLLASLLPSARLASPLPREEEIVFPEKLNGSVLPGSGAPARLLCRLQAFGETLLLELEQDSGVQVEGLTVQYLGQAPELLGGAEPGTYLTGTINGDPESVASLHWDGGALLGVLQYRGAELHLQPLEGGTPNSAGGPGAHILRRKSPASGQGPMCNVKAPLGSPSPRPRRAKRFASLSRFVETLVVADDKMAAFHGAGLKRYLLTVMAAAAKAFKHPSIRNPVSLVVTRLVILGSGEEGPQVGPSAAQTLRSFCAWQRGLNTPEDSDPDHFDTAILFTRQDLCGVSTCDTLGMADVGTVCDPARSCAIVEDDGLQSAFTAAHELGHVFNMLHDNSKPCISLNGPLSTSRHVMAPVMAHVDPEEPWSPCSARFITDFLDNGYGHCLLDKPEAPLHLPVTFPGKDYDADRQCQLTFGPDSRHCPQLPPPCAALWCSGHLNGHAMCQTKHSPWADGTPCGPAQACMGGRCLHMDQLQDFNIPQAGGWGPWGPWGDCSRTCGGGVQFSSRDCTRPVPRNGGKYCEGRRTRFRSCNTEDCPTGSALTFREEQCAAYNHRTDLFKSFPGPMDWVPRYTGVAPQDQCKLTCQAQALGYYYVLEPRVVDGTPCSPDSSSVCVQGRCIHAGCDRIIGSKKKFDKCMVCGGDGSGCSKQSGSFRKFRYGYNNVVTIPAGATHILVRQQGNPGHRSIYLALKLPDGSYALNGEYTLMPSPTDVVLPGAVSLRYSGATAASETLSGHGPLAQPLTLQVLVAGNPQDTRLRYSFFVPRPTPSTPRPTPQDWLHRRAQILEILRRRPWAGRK
Description: Inhibitory concentration against Aggrecanase 1.

The target of another experiment is Stromelysin-1 (Homo sapiens, UniProt P08254). The experiment can be described thus: Inhibitory concentration against MMP-3.
Sequence of Stromelysin-1 (P08254 whole entry, the tested form may be a part): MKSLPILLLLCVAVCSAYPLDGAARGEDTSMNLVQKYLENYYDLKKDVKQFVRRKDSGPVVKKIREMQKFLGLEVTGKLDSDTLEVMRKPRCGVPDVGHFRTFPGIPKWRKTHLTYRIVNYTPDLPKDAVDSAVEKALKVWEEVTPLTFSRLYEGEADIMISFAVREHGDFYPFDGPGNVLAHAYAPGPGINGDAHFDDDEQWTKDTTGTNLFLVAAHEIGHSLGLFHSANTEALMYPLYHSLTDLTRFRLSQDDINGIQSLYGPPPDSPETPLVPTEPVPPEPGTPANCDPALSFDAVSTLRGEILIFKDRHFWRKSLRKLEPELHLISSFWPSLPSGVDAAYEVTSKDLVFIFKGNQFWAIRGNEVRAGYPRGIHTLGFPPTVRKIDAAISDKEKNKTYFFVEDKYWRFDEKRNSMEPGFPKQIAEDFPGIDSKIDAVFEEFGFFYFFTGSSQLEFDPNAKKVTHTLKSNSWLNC
The target in experiment [2] is T2, Disintegrin and metalloproteinase domain-containing protein 17 (Homo sapiens, UniProt P78536). Description: Percent inhibition at 25 uM against TACE.
T2 sequence (P78536 whole entry, the tested form may be a part): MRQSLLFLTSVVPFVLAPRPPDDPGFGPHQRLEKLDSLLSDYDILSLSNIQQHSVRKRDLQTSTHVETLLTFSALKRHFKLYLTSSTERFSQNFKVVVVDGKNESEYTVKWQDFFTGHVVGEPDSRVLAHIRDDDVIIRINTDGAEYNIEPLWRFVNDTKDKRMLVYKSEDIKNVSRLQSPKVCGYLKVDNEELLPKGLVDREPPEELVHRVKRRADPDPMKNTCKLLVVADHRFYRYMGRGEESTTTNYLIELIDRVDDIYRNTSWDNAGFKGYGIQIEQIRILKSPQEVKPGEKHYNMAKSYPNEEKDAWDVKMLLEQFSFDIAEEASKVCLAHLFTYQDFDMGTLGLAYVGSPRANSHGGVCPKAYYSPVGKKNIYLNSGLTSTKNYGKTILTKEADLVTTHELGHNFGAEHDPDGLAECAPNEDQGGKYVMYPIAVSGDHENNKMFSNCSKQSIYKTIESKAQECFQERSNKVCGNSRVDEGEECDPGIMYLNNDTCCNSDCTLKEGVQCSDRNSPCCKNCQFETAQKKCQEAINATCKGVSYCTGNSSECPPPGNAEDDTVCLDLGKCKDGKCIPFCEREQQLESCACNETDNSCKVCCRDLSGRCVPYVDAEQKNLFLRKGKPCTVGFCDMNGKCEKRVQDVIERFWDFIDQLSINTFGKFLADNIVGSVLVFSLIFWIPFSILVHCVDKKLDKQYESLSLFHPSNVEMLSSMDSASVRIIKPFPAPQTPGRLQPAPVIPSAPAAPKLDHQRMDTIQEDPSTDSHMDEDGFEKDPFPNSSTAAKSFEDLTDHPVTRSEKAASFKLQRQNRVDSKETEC
For the next experiment, the target named is T3, Interstitial collagenase (Homo sapiens, UniProt P03956).
T3 sequence (P03956 whole entry): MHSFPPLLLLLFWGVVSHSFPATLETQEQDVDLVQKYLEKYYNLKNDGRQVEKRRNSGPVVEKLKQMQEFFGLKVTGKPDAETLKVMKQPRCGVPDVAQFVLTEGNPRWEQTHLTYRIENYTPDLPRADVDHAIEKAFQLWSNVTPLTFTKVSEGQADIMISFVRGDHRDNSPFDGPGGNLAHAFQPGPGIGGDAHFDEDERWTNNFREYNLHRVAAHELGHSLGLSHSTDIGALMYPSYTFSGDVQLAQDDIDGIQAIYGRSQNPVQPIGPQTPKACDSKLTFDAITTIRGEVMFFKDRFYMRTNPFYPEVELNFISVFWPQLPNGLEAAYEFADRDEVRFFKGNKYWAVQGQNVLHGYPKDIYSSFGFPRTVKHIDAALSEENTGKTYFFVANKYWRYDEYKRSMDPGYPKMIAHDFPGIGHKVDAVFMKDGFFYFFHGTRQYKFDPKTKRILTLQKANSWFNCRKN
Description: Inhibitory concentration against MMP-1.

The next experiment concerns the target T4, Matrilysin (Homo sapiens, UniProt P09237).
T4 sequence (P09237 whole entry): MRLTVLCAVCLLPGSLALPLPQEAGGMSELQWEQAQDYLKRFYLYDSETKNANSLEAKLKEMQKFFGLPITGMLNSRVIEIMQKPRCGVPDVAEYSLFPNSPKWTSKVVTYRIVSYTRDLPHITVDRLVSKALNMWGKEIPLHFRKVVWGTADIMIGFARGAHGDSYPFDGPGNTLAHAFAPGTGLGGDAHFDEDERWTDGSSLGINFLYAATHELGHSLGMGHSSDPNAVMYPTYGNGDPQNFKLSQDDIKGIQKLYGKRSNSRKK
The experiment can be described thus: Inhibitory concentration against MMP-7.

Experiment [3] concerns the target Matrix metalloproteinase-14 (Homo sapiens, UniProt P50281).
Description: Inhibitory concentration against MMP-14
For another experiment, the species on record is Homo sapiens. The experiment can be described thus: Ratio of the inhibitory concentration against MMP-2 to that of MMP-13.
In experiment [4] the target is Matrix metalloproteinase-9 (Homo sapiens) (UniProt P14780). The experiment can be described thus: Percent inhibition at 25 uM against MMP-9.
Sequence of Matrix metalloproteinase-9 (Homo sapiens) (P14780 whole entry): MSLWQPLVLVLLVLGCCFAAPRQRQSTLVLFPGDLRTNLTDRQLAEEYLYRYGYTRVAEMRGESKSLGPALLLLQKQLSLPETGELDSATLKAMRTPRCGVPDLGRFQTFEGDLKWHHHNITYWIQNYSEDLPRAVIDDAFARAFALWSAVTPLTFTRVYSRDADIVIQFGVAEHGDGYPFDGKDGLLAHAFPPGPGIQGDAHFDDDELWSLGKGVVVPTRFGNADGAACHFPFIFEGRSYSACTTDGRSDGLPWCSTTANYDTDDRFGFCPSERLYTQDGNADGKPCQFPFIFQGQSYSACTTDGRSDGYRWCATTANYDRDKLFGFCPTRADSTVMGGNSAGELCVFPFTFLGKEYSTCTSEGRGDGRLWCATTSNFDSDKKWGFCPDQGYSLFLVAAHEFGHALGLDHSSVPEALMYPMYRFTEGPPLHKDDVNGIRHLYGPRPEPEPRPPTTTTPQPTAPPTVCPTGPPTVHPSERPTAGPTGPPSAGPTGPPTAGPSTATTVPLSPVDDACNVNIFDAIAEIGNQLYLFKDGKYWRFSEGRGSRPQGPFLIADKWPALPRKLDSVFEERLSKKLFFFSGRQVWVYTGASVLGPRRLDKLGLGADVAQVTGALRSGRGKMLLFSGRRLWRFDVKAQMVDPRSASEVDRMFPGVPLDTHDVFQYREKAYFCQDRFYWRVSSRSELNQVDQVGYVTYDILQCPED
The target in another experiment is Collagenase 3 (Homo sapiens, UniProt P45452). The experiment can be described thus: Inhibitory concentration against MMP-13.
The target of experiment [5] is T2, Disintegrin and metalloproteinase domain-containing protein 17. The experiment can be described thus: Inhibitory concentration against TACE.
Experiment [6] has as its target 72 kDa type IV collagenase (Homo sapiens, UniProt P08253). Description: Inhibitory concentration against MMP-2.

Sequence of 72 kDa type IV collagenase (P08253 whole entry): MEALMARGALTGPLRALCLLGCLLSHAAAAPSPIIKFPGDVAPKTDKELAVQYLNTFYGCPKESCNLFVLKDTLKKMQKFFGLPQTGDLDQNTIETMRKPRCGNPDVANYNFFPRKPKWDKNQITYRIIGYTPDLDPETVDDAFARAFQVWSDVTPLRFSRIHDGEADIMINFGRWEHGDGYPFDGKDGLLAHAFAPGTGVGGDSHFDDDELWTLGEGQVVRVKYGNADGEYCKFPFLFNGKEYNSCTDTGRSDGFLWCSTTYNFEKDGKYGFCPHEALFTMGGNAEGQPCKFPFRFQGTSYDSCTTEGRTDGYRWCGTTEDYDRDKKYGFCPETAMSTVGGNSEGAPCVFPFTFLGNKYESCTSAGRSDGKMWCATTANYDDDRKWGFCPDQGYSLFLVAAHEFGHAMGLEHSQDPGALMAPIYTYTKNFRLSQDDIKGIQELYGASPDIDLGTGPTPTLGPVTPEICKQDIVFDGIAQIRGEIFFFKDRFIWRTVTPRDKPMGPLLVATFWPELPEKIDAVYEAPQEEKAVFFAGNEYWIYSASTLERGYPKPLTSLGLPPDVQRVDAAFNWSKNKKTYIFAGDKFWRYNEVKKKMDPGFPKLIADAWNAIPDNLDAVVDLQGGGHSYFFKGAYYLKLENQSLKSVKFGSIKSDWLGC
Sequence of Neutrophil collagenase (P22894 whole entry): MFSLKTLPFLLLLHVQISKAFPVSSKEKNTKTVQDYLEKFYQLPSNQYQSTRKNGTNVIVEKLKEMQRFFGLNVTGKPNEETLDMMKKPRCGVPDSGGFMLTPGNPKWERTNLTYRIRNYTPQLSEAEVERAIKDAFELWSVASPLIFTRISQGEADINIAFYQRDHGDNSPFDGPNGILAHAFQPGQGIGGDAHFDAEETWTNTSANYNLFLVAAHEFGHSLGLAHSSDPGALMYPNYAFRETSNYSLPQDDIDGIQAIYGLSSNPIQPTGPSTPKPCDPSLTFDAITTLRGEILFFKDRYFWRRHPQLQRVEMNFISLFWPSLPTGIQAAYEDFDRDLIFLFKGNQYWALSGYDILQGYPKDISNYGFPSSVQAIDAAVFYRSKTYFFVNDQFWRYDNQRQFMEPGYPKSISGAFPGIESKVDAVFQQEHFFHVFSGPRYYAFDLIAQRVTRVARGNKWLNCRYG

For the compound `COc1c(I)ccc2oc(C(=O)Nc3ccc(-c4ccc(S(=O)(=O)N[C@H](C(=O)O)C(C)C)cc4)cc3)c(C)c12`, the IC50 – broadly, the midpoint of a concentration-inhibition curve – on Neutrophil collagenase was determined as 404 nM; in experiment [1], 15000 nM; at Stromelysin-1, 1060 nM; at Interstitial collagenase, 60000 nM; on Matrilysin it was 3010 nM; in [3] it was 30000 nM. The values for the inhibition in [2] and in [4] were 38% and 51%, respectively. In addition, the Ratio in the experiment listed under Homo sapiens is 650.

With `COc1cccc2oc(C(=O)Nc3ccc(-c4ccc(S(=O)(=O)N[C@H](C(=O)O)C(C)C)cc4)cc3)cc12`, the Ratio in the experiment filed under Homo sapiens was found to be 7.

As to `CCc1c(C(=O)Nc2ccc(-c3ccc(S(=O)(=O)N[C@H](C(=O)O)C(C)C)cc3)cc2)oc2ccccc12`, the Ratio in the experiment listed under Homo sapiens came to 32. The compound further registered an IC50 at Collagenase 3 of 55 nM.

Consider `Cc1c(C(=O)Nc2ccc(-c3ccc(S(=O)(=O)N[C@H](C(=O)O)C(C)C)cc3)cc2)oc2ccc(Cl)c(OC(C)C)c12`, for which the IC50 was 110 nM against Neutrophil collagenase; 14300 nM in [1]; 1090 nM at Stromelysin-1; 37100 nM against Interstitial collagenase; 1640 nM at Matrilysin; 50000 nM in experiment [3]. Besides, the inhibition (usually the drop in the measured response relative to a control, in per cent) in [2] is 98%; in experiment [4] it was 51%. The Ratio in the experiment listed under Homo sapiens was 275.

Regarding `CCc1ccc2oc(C(=O)Nc3ccc(-c4ccc(S(=O)(=O)N[C@H](C(=O)O)C(C)C)cc4)cc3)c(C)c2c1O`, the half-inhibitory concentration (IC50) came to 94 nM on Neutrophil collagenase; 4400 nM in experiment [1]; 492 nM against Stromelysin-1; 23400 nM against Interstitial collagenase; 458 nM on Matrilysin; 15800 nM in [3]. In addition, the inhibition in experiment [2] stood at 42%; in experiment [4] it was 55%. The Ratio in the experiment listed under Homo sapiens turned out to be 250.

Consider `COc1c(C#N)ccc2oc(C(=O)Nc3ccc(-c4ccc(S(=O)(=O)N[C@H](C(=O)O)C(C)C)cc4)cc3)c(C)c12`, for which the Ratio in the experiment filed under Homo sapiens was found to be 175.

On to `COc1cccc2oc(C(=O)Nc3ccc(-c4ccc(S(=O)(=O)N[C@H](C(=O)O)C(C)C)cc4)cc3)c(C)c12`, for which, in the experiment listed under Homo sapiens, the Ratio worked out at 110.

As to `COc1c(Br)ccc2oc(C(=O)Nc3ccc(-c4ccc(S(=O)(=O)N[C@H](C(=O)O)C(C)C)cc4)cc3)c(C)c12`, the IC50 against Neutrophil collagenase was determined as 73 nM; in experiment [1], 5600 nM; on Stromelysin-1, 144 nM; on Matrilysin it was 866 nM; in [5], 34000 nM; in experiment [3] it was 15000 nM. Moreover, the Ratio in the experiment filed under Homo sapiens turned out to be 740. The inhibition in experiment [4] was determined as 66%.

`Cc1c(C(=O)Nc2ccc(-c3ccc(S(=O)(=O)N[C@H](C(=O)O)C(C)C)cc3)cc2)oc2ccc(Br)cc12`: the Ratio in the experiment listed under Homo sapiens turned out to be 27.

In turn, `CC(C)[C@@H](NS(=O)(=O)c1ccc(-c2ccc(NC(=O)c3cc4ccccc4o3)cc2)cc1)C(=O)O` returned an IC50 in [6] of 4.6 nM.

Turning to `Cc1c(C(=O)Nc2ccc(-c3ccc(S(=O)(=O)N[C@@H](C(=O)O)C(C)C)cc3)cc2)oc2ccccc12`, the IC50 came to 164 nM in experiment [6] and 17 nM on Collagenase 3. The Ratio in the experiment filed under Homo sapiens worked out at 10.

As for `COc1c(Br)ccc2oc(C(=O)Nc3ccc(-c4ccc(S(=O)(=O)N[C@H](C(=O)O)C(C)C)cc4)cc3)cc12`, the IC50 was determined as 7.1 nM in experiment [6] and 0.4 nM against Collagenase 3. Also, in the experiment listed under Homo sapiens, the Ratio came out at 18.

Consider `Cc1c(C(=O)Nc2ccc(-c3ccc(S(=O)(=O)N[C@H](C(=O)O)C(C)C)cc3)cc2)oc2ccccc12`, for which the Ratio in the experiment filed under Homo sapiens was found to be 44.

The compound `CC(C)[C@H](NS(=O)(=O)c1ccc(-c2ccc(NC(=O)c3oc4ccccc4c3-c3ccccc3)cc2)cc1)C(=O)O` registered an IC50 in experiment [6] of 1200 nM. In addition, in the experiment filed under Homo sapiens, the Ratio was determined as 6.

As to `COc1c(Br)ccc2oc(C(=O)Nc3ccc(-c4ccc(S(=O)(=O)N[C@@H](C(=O)O)C(C)C)cc4)cc3)c(C)c12`, the results for the IC50 (in experiment [6]; on Collagenase 3) were 688 nM and 3.4 nM, respectively. For the same compound, the Ratio in the experiment filed under Homo sapiens was 202.

Consider `CC(C)[C@H](NS(=O)(=O)c1ccc(-c2ccc(NC(=O)c3cc4cc(Br)ccc4o3)cc2)cc1)C(=O)O`, for which the Ratio in the experiment filed under Homo sapiens is 1. In addition, the half-inhibitory concentration (IC50) at Collagenase 3 was 0.61 nM.

In the case of `CCc1ccc2oc(C(=O)Nc3ccc(-c4ccc(S(=O)(=O)N[C@H](C(=O)O)C(C)C)cc4)cc3)c(C)c2c1OCc1ccccc1`, the Ratio in the experiment listed under Homo sapiens came out at 65.

Consider `CCc1ccc2oc(C(=O)Nc3ccc(-c4ccc(S(=O)(=O)N[C@H](C(=O)O)C(C)C)cc4)cc3)c(C)c2c1OC`, for which the IC50 at Neutrophil collagenase was 101 nM; in experiment [1], more than 15000 nM; against Stromelysin-1, 561 nM; on Interstitial collagenase, 28000 nM; at Matrilysin, 1260 nM; in [3], 30000 nM. Also, the inhibition came to 43% in [2] and 64% in [4]. Further, in the experiment listed under Homo sapiens, the Ratio came to 660.

For the compound `COc1c(CO)ccc2oc(C(=O)Nc3ccc(-c4ccc(S(=O)(=O)N[C@H](C(=O)O)C(C)C)cc4)cc3)c(C)c12`, the values for the IC50 (in [6]; at Collagenase 3) were 1410 nM and 7.8 nM, respectively. Also, in the experiment listed under Homo sapiens, the Ratio is 180.

As to `COc1c(Cl)ccc2oc(C(=O)Nc3ccc(-c4ccc(S(=O)(=O)N[C@H](C(=O)O)C(C)C)cc4)cc3)c(C)c12`, in the experiment filed under Homo sapiens, the Ratio worked out at 785.

For the compound `CC(=O)c1ccc2oc(C(=O)Nc3ccc(-c4ccc(S(=O)(=O)N[C@H](C(=O)O)C(C)C)cc4)cc3)c(C)c2c1O`, in the experiment listed under Homo sapiens, the Ratio worked out at 20.

Turning to `COc1c(C)ccc2oc(C(=O)Nc3ccc(-c4ccc(S(=O)(=O)N[C@H](C(=O)O)C(C)C)cc4)cc3)c(C)c12`, the IC50 was 52 nM on Neutrophil collagenase; 8600 nM in [1]; 442 nM against Stromelysin-1; 37100 nM against Interstitial collagenase; 534 nM at Matrilysin; 15000 nM in experiment [3]. Besides, the inhibition in experiment [2] came out at 39%; in experiment [4], 76%. In addition, the Ratio in the experiment listed under Homo sapiens stood at 330.

With `CCc1ccc2oc(C(=O)Nc3ccc(-c4ccc(S(=O)(=O)N[C@H](C(=O)O)C(C)C)cc4)cc3)c(C)c2c1OC(C)C`, in the experiment listed under Homo sapiens, the Ratio was found to be 260.
